Data set [1] has as its target T1, unphosphorylated VEGF-R2Δ50 (FLVK) (Homo sapiens, UniProt P35968, DEL940-989/E990V).
T1 construct: VEGF-R2Δ50 contains residues 806-939 and 990-1171; made in house; host or cells: baculovirus/insect cell system
Put plainly: VEGF-R2 coupled spectrophotometric assay, unphosphorylated construct (FLVK). It is filed as biochemical. The procedure, abridged: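 Continuous coupled assay (PEP, PK, LDH; NADH loss at 340 nm) in 200 mM HEPES pH 7.5 with 3 mM ATP, 20 mM poly(E4Y1), 60 mM MgCl2 plus 2 mM MnCl2, started with 5-40 nM non-autophosphorylated VEGF-R2Δ50. Ki values from activity across compound concentrations, Morrison fit.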

A further data set has as its target T2, PDGFRβ (Homo sapiens, UniProt P09619).
T2 construct: expressed in transfected cells; host or cells: porcine aorta endothelial (PAE) cells
Put plainly: PAE-PDGFRβ phosphorylation in PAE-PDGFRB cells assay. It counts as cell-based. As to conditions: PAE cells overexpressing human PDGFRβ, PDGF-BB stimulated; read-out: PAE PDGFR autophos IC50. How it is done: This assay determines the ability of a test compound to inhibit the autophosphorylation of PDGFRβ in porcine aorta endothelial (PAE)-PDGFRβ cells. PAE cells that overexpress human PDGFRβ were used in this assay. The cells were cultured in Ham's F12 media supplemented with 10% fetal bovine serum (FBS) and 400 ug/ml G418. Twenty thousands cells were seeded in each well of a 96-well plate in 50 μL of growth media and allowed to attach for 6 hours at 37° C. Cells were then exposed to the starvation media (Ham's F12 media supplemented with 0.1% FBS) for 16 hours. After the starvation period was over, 10 μL of test agent in 5% DMSO in starvation media were added to the test wells and 10 μL of the vehicle (5% DMSO in starvation media) were added into the control wells. The final DMSO concentration in each well was 0.5%. Plates were incubated at 37° C. for 1 hour and the cells were then stimulated with 1 μg/mL PDGF-BB (R & D System) in the presence of 2 mM Na3VO4 for 8 minutes. The cells were washed once with 1 mm Na3VO4 in HBSS and lysed by adding 50 μL per well of lysis buffer. One hundred μL of dilution buffer were then added to each well and the diluted cell lysate was transferred to a 96-well goat ant-rabbit coated plate (Pierce), which was pre-coated with Rabbit anti Human PDGFRβ antibody (Santa Cruz). The plates were incubated at room temperature for 2 hours and washed seven times with 1% Tween 20 in PBS. HRP-PY20 (Santa Cruz) was diluted and added to the plate for a 30-minute incubation. Plates were then washed again and TMB peroxidase substrate (Kirkegaard & Perry) was added for a 10-minute incubation. One hundred μL of 0.09 N H2SO4 was added into each well of the 96-well plate to stop the reaction. Phosphorylation status was assessed by spectrophotometer reading at 450 nm. IC50 values were calculated by curve fitting using a four-parameter analysis.

Data set [2] deals with human umbilical vein endothelial cells (HUVEC). Put plainly: HUVEC+VEGF proliferation assay. It counts as cell-based. As to conditions: VEGF 6 ng/mL, MTT. How it is done: This assay determines the ability of a test compound to inhibit the growth factor-stimulated proliferation of human umbilical vein endothelial cells (“HUVEC”). HUVEC cells (passage 3-4, Clonetics, Corp.) were thawed into EGM2 culture medium (Clonetics Corp) in T75 flasks. Fresh EGM2 medium was added to the flasks 24 hours later. Four or five days later, cells were exposed to another culture medium (F12K medium supplemented with 10% fetal bovine serum (FBS), 60 μg/mL endothelial cell growth supplement (ECGS), and 0.1 mg/mL heparin). Exponentially-growing HUVEC cells were used in experiments thereafter. Ten to twelve thousand HUVEC cells were plated in 96-well dishes in 100 μl of rich, culture medium (described above). The cells were allowed to attach for 24 hours in this medium. The medium was then removed by aspiration and 105 μl of starvation media (F12K+1% FBS) was added to each well. After 24 hours, 15 μl of test agent dissolved in 1% DMSO in starvation medium or this vehicle alone was added into each treatment well; the final DMSO concentration was 0.1%. One hour later, 30 μl of VEGF (30 ng/mL) in starvation media was added to all wells except those containing untreated controls; the final VEGF concentration was 6 ng/mL. Cellular proliferation was quantified 72 hours later by MTT dye reduction, at which time cells were exposed for 4 hours MTT (Promega Corp.). Dye reduction was stopped by addition of a stop solution (Promega Corp.) and absorbance at 595 nm was determined on a 96-well spectrophotometer plate reader.

The next data set in a line: Mouse PK assay. It counts as in vivo, B6 female mice. As to conditions: for AUC / Cmax: female, B6, mouse, plasma; for Mouse Cmin, po / AUC / Cmax: po; for Cmax: read-out: Mouse Cmax, po ng-h/mL. The procedure:
The pharmacokinetics (e.g., absorption and elimination) of drugs in mice were analyzed using the following experiment. Test compounds were formulated as a suspension in a 30:70 (PEG 400: acidified H2O) vehicle. This solution was administered orally (p.o.) and intraperitoneally (i.p.) at 50 mg/kg to two distinct groups (n=4) of B6 female mice. Blood samples were collected via an orbital bleed at time points: 0 hour (pre-dose), 0.5 hr, 1.0 hr, 2.0 hr, and 4.0 hr post dose. Plasma was obtained from each sample by centrifugation at 2500 rpm for 5 min. Test compound was extracted from the plasma by an organic protein precipitation method. For each time bleed, 50 μL of plasma was combined with 1.0 mL of acetonitrile, vortexed for 2 min. and then spun at 4000 rpm for 15 min. to precipitate the protein and extract out the test compound. Next, the acetonitrile supernatant (the extract containing test compound) was poured into new test tubes and evaporated on a hot plate (25° C.) under a steam of N2 gas. To each tube containing the dried test compound extract, 125 μL of mobile phase (60:40, 0.025 M NH4H2PO4+2.5 mL/L TEA:acetonitrile) was added. The test compound was resuspended in the mobile phase by vortexing and more protein was removed by centrifugation at 4000 rpm for 5 min. Each sample was poured into an HPLC vial for test compound analysis on an Hewlett Packard 1100 series HPLC with UV detection. From each sample, 95 μL was injected onto a Phenomenex-Prodigy reverse phase C-18, 150×3.2 mm column and eluted with a 45-50% acetonitrile gradient run over 10 min. Test-compound plasma concentrations (μg/mL) were determined by a comparison to standard curve (peak area vs. conc. μg/mL) using known concentrations of test compound extracted from plasma samples in the manner described above. Along with the standards and unknowns, three groups (n=4) of quality controls (0.25 μg/mL, 1.5 μg/mL, and 7.5 μg/mL) were run to insure the consistency of the analysis. […] The quantitated test samples were plotted for visual display using Kaleidagraph software and their pharmacokinetic parameters were determined using WIN NONLIN software.

A further data set has as its target T3, KDR (VEGFR2) (Homo sapiens, UniProt P35968).
T3 construct: expressed in transfected cells; host or cells: porcine aorta endothelial (PAE) cells
Kind of data set: KDR (VEGFR2) phosphorylation in PAE-KDR cells assay. As to conditions: PAE cells overexpressing human KDR, VEGF stimulated; read-out: PAE KDR autophos IC50. It counts as cell-based. The procedure: This assay determines the ability of a test compound to inhibit the autophosphorylation of KDR in porcine aorta endothelial (PAE)-KDR cells. PAE cells that overexpress human KDR were used in this assay. The cells were cultured in Ham's F12 media supplemented with 10% fetal bovine serum (FBS) and 400 ug/mL G418. Thirty thousands cells were seeded into each well of a 96-well plate in 75 μL of growth media and allowed to attach for 6 hours at 37° C. Cells were then exposed to the starvation media (Ham's F12 media supplemented with 0.1% FBS) for 16 hours. After the starvation period was over, 10 μL of test agent in 5% DMSO in starvation media were added to the test wells and 10 μL of the vehicle (5% DMSO in starvation media) were added into the control wells. The final DMSO concentration in each well was 0.5%. Plates were incubated at 37° C. for 1 hour and the cells were then stimulated with 500 ng/ml VEGF (commercially available from R & D System) in the presence of 2 mM Na3VO4 for 8 minutes. The cells were washed once with 1 mm Na3VO4 in HBSS and lysed by adding 50 μL per well of lysis buffer. One hundred μL of dilution buffer were then added to each well and the diluted cell lysate was transferred to a 96-well goat ant-rabbit coated plate (commercially available from Pierce) which was pre-coated with Rabbit anti Human Anti-flk-1 C-20 antibody (commercially available from Santa Cruz). The plates were incubated at room temperature for 2 hours and washed seven times with 1% Tween 20 in PBS. HRP-PY20 (commercially available from Santa Cruz) was diluted and added to the plate for a 30-minute incubation. Plates were then washed again and TMB peroxidase substrate (commercially available from Kirkegaard & Perry) was added for a 10-minute incubation. One hundred μL of 0.09 N H2SO4 was added to each well of the 96-well plates to stop the reaction. Phosphorylation status was assessed by spectrophotometer reading at 450 nm. IC50 values were calculated by curve fitting using a four-parameter analysis.

T2 sequence (P09619 33-1106): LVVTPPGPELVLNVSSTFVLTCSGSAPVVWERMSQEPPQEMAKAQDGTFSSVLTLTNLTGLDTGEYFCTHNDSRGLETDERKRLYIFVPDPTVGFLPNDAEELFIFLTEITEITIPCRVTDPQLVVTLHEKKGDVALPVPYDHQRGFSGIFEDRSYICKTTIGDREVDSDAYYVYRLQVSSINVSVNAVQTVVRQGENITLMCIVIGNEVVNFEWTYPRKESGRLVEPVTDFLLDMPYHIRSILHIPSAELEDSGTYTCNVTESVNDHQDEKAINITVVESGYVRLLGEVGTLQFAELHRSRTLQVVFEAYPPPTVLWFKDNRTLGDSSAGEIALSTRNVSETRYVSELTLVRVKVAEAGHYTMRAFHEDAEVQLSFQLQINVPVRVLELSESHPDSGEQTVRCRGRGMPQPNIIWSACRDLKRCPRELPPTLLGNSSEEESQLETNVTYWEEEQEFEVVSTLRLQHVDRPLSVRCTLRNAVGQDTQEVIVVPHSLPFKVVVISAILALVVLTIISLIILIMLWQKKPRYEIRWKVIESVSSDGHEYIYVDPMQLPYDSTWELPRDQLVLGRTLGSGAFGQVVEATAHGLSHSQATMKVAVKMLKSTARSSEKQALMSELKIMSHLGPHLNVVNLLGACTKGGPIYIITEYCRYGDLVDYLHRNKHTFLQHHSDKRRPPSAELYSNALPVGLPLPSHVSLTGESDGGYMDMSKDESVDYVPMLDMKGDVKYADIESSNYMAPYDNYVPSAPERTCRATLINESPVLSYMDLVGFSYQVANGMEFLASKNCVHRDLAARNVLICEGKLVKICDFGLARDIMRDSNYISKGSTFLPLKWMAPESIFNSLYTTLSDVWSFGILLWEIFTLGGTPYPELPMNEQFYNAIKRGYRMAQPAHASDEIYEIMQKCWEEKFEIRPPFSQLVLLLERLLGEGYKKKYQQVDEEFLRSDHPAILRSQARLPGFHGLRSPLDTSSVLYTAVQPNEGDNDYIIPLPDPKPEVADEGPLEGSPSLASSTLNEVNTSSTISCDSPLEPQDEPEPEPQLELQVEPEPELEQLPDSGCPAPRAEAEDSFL
T1 sequence (P35968 with tags, fused parts or gaps DEL940-989/E990V limits assumed): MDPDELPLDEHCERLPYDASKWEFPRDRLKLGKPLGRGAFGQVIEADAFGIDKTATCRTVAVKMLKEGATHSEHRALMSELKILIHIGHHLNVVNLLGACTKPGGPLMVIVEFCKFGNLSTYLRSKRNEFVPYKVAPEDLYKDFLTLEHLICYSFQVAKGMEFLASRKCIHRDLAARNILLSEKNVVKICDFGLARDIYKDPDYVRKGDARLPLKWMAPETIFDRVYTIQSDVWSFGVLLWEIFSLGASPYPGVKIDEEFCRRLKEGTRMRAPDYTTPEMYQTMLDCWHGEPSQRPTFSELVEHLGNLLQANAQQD
T3 sequence (P35968 20-1356): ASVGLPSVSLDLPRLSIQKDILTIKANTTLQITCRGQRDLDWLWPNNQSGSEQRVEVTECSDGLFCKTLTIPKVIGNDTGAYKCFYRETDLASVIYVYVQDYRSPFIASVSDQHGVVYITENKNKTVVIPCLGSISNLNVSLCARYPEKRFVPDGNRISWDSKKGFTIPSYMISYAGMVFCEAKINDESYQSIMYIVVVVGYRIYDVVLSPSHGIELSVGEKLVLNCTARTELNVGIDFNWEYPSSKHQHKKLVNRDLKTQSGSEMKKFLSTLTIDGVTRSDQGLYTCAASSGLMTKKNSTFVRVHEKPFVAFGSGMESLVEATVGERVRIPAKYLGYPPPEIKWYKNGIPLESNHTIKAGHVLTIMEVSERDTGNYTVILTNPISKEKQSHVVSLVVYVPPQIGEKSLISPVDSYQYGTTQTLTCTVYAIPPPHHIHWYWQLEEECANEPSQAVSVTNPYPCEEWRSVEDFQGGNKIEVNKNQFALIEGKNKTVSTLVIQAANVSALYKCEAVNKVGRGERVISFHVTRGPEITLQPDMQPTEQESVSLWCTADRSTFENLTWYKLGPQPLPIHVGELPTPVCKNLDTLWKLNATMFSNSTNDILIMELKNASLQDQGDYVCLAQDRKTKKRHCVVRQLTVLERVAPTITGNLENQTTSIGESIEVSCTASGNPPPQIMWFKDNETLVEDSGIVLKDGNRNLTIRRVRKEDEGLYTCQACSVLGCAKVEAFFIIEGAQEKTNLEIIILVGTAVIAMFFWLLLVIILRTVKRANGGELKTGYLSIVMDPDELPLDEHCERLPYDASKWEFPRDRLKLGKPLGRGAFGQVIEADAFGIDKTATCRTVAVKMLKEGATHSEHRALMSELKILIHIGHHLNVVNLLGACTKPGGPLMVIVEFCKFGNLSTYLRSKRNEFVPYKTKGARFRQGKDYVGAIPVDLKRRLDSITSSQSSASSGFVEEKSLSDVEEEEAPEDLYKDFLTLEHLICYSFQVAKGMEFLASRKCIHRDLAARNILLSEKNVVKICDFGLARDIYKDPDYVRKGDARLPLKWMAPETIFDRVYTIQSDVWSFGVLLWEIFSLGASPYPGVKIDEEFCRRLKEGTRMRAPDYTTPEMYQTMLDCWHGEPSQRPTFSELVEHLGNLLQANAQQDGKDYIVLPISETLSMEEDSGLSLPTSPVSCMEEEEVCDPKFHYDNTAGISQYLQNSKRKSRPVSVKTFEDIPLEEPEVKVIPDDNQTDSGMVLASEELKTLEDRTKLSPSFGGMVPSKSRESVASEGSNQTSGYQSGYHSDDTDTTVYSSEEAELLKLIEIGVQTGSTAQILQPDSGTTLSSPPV

As for `CO[C@H]1CCN(C(=O)c2cc3nccc(Nc4ccc5c(c4)cc(C)n5C(=O)NC4CC4)c3s2)C1` [Example 1f, 5-[2-(3S-Methoxy-pyrrolidine-1-carbonyl)-thieno[3,2-b]pyridin-7-ylamino]-2-methyl-indole-1-carboxylic acid cyclopropylamide], in data set [1], the affinity, expressed as Ki, was 0.21 nM. For the same compound, the “FLVK (% @ 50 (nM))” value in data set [1] (percent inhibition at 50 nM) is on record as 97%. For the same compound, the half-inhibitory concentration (IC50) (usually the midpoint of a concentration-inhibition curve) on PDGFRβ was 175 nM; in data set [2] (72 hours) it was 0.68 nM. The “Mouse PK AUC, po ng-h/mL” value in “Mouse PK assay” (p.o., 50 mg/kg) came to 1837 ng·h/mL. Also, in the data set “Mouse PK assay”, the “Mouse Cmin, po” value is on record as 4 ng/mL.

On to `Cc1cc2cc(Nc3ccnc4cc(C(=O)N5CC[C@@H](O)C5)sc34)ccc2n1C(=O)NC1CC1` [Example 1q, 5-[2-(3R-Hydroxy-pyrrolidine-1-carbonyl)-thieno[3,2-b]pyridin-7-ylamino]-2-methyl-indole-1-carboxylic acid cyclopropylamide], for which, in data set [1], the inhibition constant (Ki) – broadly, a dissociation constant, usually derived from enzyme kinetics or from competition with a known ligand – turned out to be 0.17 nM. Testing at 0.05 µM in data set [1] (percent inhibition at 50 nM) gave an inhibition of 99%. Moreover, the IC50 was above 1000 nM at PDGFRβ and 0.481 nM in data set [2] (Homo sapiens, HUVEC, 72 h). Further, the AUC (usually concentration integrated over time) in “Mouse PK assay” (50 mg/kg) worked out at 6 ng·h/mL. The Cmax in “Mouse PK assay” (50 mg/kg, p.o., 50 mg/kg) is 5 ng/mL. Besides, the “Mouse Cmin, po” value in the data set “Mouse PK assay” came out at 0 ng/mL.

In data set [1], `C#CCNC(=O)n1c(C)cc2c(F)c(Oc3ccnc4cc(C(=O)N5CCC[C@H]5COC)sc34)ccc21` [Example 5c, 4-Fluoro-5-[2-(2S-methoxymethyl-pyrrolidine-1-carbonyl)-thieno[3,2-b]pyridin-7-yloxy]-2-methyl-indole-1-carboxylic acid prop-2-ynylamide] showed a Ki of 0.605 nM. At 0.05 µM the inhibition in data set [1] (percent inhibition at 50 nM) was 99%. Also, the half-inhibitory concentration (IC50) on PDGFRβ is 7.7 nM; in data set [2] (Homo sapiens, HUVEC, 72 h) it was 0.115 nM. Moreover, in the data set “Mouse PK assay” (50 mg/kg), the AUC amounted to 36200 ng·h/mL. Further, the Cmax in the data set “Mouse PK assay” (50 mg/kg, p.o., 50 mg/kg) is 19700 ng/mL.

Regarding `C#CCNC(=O)n1c(C)cc2c(F)c(Oc3ccnc4cc(C(=O)N5CC[C@H](OC)C5)sc34)ccc21` [Example 5g, 4-Fluoro-5-[2-(3S-methoxy-pyrrolidine-1-carbonyl)-thieno[3,2-b]pyridin-7-yloxy]-2-methyl-indole-1-carboxylic acid prop-2-ynylamide], in data set [1], the affinity corresponds to a Ki of 0.45 nM. For the same compound, 0.05 µM produced 99% inhibition in data set [1] (percent inhibition at 50 nM). For the same compound, the IC50 was determined as 11.2 nM on PDGFRβ and 0.15 nM in data set [2] (Homo sapiens, HUVEC, 72 h). In the data set “Mouse PK assay” (50 mg/kg), this compound returned an AUC of 1170 ng·h/mL. Besides, the Cmax in “Mouse PK assay” (50 mg/kg, p.o., 50 mg/kg) was 321 ng/mL. In addition, the “Mouse Cmin, po” value in the data set “Mouse PK assay” stood at 65 ng/mL.

In data set [1], `CNC(=O)n1c(C)cc2cc(Oc3ccnc4cc(C(=O)N5C[C@H](OC)[C@@H](OC)C5)sc34)ccc21` [Example 8b, 5-[(2-{[(3S,4S)-3,4-Dimethoxypyrrolidin-1-yl]carbonyl}thieno[3,2-b]pyridin-7-yl)oxy]-2-dimethyl-1H-indole-1-carboxylic acid methylamide] gave a Ki of 0.202 nM. For the same compound, in data set [1] (percent inhibition at 50 nM), the inhibition (commonly the share of the control response that was lost under treatment) at 0.05 µM stood at 97%. In addition, at KDR (VEGFR2), the IC50 was 0.24 nM.

Compound `CCCNC(=O)n1c(C)cc2cc(Oc3ccnc4cc(C(=O)N5CC[C@@H](N(C)C)C5)sc34)ccc21` [Example 8h, 5-[(2-{[(3R)-3-(Dimethylamino)pyrrolidin-1-yl]carbonyl}thieno[3,2-b]pyridin-7-yl)oxy]-2-methyl-N-propyl-1H-indole-1-carboxamide] showed a Ki in data set [1] of 0.301 nM. Further, testing at 0.05 µM in data set [1] (percent inhibition at 50 nM) gave an inhibition of 99%. Also, the IC50 at PDGFRβ came out at 19 nM; in data set [2] (Homo sapiens, HUVEC, 72 h), 0.16 nM. In addition, the exposure (AUC) in “Mouse PK assay” (50 mg/kg) came out at 2390 ng·h/mL. Also, in the data set “Mouse PK assay” (50 mg/kg, p.o., 50 mg/kg), the Cmax worked out at 920 ng/mL. The “Mouse Cmin, po” value in the data set “Mouse PK assay” was found to be 204 ng/mL.

In data set [1], `CCNC(=O)n1c(C)cc2cc(Oc3ccnc4cc(C(=O)N5CC[C@H](O)C5)sc34)ccc21` [Example 9h, 5-[2-(3S-Hydroxy-pyrrolidine-1-carbonyl)-thieno[3,2-b]pyridin-7-yloxy]-2-methyl-indole-1-carboxylic acid ethylamide] had a Ki of 0.258 nM. In data set [1] (percent inhibition at 50 nM), this compound returned an inhibition at 0.05 µM of 99%. For the same compound, the half-inhibitory concentration (IC50) turned out to be 31 nM at PDGFRβ and 0.9 nM in data set [2] (Homo sapiens, HUVEC, 72 h).

The values above are taken from patent US6833456B2, “Indolyl-urea derivatives of thienopyridines useful as antiangiogenic agents, and methods for their use” (Agouron Pharmaceuticals, Inc., priority 2002, dated 2004).
